The values that follow come from patent US6630120B1, “Agents to increase the uptake of pharmaceuticals and diagnostic substances into solid tumors” (priority 1999, dated 2003).

Data set [1] relates to MAT B (III) rat mammary adenocarcinoma tumor implanted in the flank. How it is done:
A series of studies were carried out on rat hosts in which suspended tumor cells had been subcutaneously implanted in the flank of the animal to create a solid tumor in situ. The effects of the administration of Cereport™ on the incorporation of ^14C-carboplatin into the tumor were evaluated.
Male Fischer rats (170-220 g; Taconic Farms, Germantown, N.Y.) were used in these studies. Animals were housed in pairs in polypropylene cages with free access to food and water. The vivarium was maintained on a 12 h light: 12 h dark cycle with a room temperature of 22±1° C. and relative humidity level of 50±5%.
The MAT B (III) cell line (ATCC CRL-1666), a rat ascites mammary adenocarcinoma, was used to produce peripheral tumors upon implantation in rats. Cells were grown and maintained at 37° C. in a 95% air/5% CO2 humidified atmosphere using McCoy's medium 5A (GIBCO) supplemented with 20 mM HEPES, 1/2X Antibody-Antimycotic, and 10% heat-inactivated Fetal Bovine Serum.
Immediately prior to implantation, MAT B-III cells were suspended in 1.2% methyl cellulose at a density of 5×10^6/ml. 200 μl of this suspension (1×10^6 cells) was injected subcutaneously into the flank of each animal using a 22G needle.
One week after tumor implantation, and under urethane anesthesia (1.8 g/kg; i.p.), cannulae (PE50, Clay Adams, Bectin Dickinson, Sparks, Md.) were placed in the jugular vein for drug administration and both femoral arteries for the measurement of physiological parameters.
Cereport™ (RMP-7, Alkermes, Inc., Cambridge, Mass.) and ^14C-carboplatin or -dextran (SA=144 μCi/mg and 1.08 μCi/mg respectively) were dissolved in sterile 0.9% saline and infused intravenously using a syringe pump at a rate of 0.05 ml/min over the entire administration period. Using the human clinical protocol as a basis, ^14C-carboplatin or dextran (100 μCi/kg) was infused for 15 minutes followed immediately by a 10 minute infusion of Cereport™. Throughout the experiment, body temperature was maintained normothermic (37.0±1.0° C.) and arterial blood gases, pH, and blood pressure were monitored. Animals with physiological values outside the normal ranges were not used.
At the end of the drug administration protocol, rats were sacrificed and the peripheral tumor was rapidly removed. A 1-2 mm thick slice was cut from the center of tumor. The slice was then divided into two equal parts comprising the center of the dissected piece (inner tumor) and the outside edge (outer tumor). Each tumor sample was weighed and placed into a scintillation vial and the amount of radioactivity (nCi/g) was computed for each region using scintillation counts as a measure of the radioactivity.

The subject of data set [2] is MAT B-III tumor in rear flank or mammary fat pads. Conditions: FIG. 5; female Fischer rats; 15 min carboplatin then 10 min Cereport 1.0 μg/kg. How it is done:
MAT B-III cells (1×10^6) were implanted in two anatomically distinct sites in female Fischer rats. The tumor cells were implanted into either the subcutaneous space of the rear flank or orthotopically into mammary fat pads. Seven days later, the animals received a 15 minute i.v. infusion of ^14C-Carboplatin (100 μCi/kg) followed immediately by a 10 minute infusion of either saline or Cereport™ at 1.0 μg/kg. Following the saline or Cereport™ infusion, the tumor was rapidly removed and dissected into inner and outer regions. The amount of radioactivity of each tumor region was determined by scintillation counts.

The subject of data set [3] is MAT B-III tumor implanted into the liver. Conditions: FIG. 6. How it is done: MAT B-III cells (1×10^6) were implanted directly into the liver of male Fischer rats using a 25G needle and 1 ml tuberculin syringe. Fourteen days later, the animals received a 15 minute i.v. infusion of ^14C-carboplatin (100 μCi/kg) followed immediately by a 10 minute infusion of either saline or Cereport™ at 1.0 μg/kg. Following the saline or Cereport™ infusion, the liver was rapidly removed. The tumor was dissected free of the surrounding liver tissue and divided into inner and outer regions. A 1 mm strip of liver that immediately surrounded the tumor (inner ring) and the adjacent 1 mm strip of liver (outer ring) were also removed and assayed. In addition, an equivalent strip of liver from the untreated lobe, was removed and assayed. This liver strip served as a control.

The subject of data set [4] is implanted tumor and various organs. Particulars: FIG. 7; Cereport 1 μg/kg; carboplatin bolus two minutes into five minute Cereport infusion. How it is done:
The carboplatin was administered as a bolus two minutes into a five minute Cereport™ infusion.

The test system of a further data set is Walker 256 tumor. Particulars: FIG. 9; male Wistar rats; 15 min carboplatin then 10 min Cereport 1.0 μg/kg. How it is done:
Walker 256 cells (ATCC CCL-38) (1×10^7) were implanted into the subcutaneous space of the rear flank of male Wistar rats to create a solid tumor in situ in the same manner as previously described for the MAT B-III cells. Eight days later, the animals received a 15 minute i.v. infusion of ^14C-carboplatin (100 μCi/kg) followed immediately by a 10 minute infusion of either saline or Cereport™ at 1.0 μg/kg. Following the saline or Cereport™ infusion, the tumor was rapidly removed and dissected into inner and outer regions. The amount of radioactivity of each tumor region was determined by scintillation counts.

Data set [5] deals with implanted tumor. Conditions: FIG. 10. How it is done:
In some instances, Cereport™ is administered in addition to carboplatin. The carboplatin was infused for 15-minutes followed immediately by a 10 minute infusion of Cereport™ at 1.5 μg/kg.

For data set [6], the system named is MAT B-III metastatic lung tumors. Description: Animal survival with MAT B-III metastatic lung tumors after carboplatin and Cereport. In kind it is in vivo, rat. Particulars: FIG. 13. How it is done: MAT B-III cells were introduced into the lungs of 12 female F-344 Fisher rats by intrajugular injections of either 1×10^5 or 1×10^6 cells in 200 μl suspensions. The cells and animals were maintained and handled as described in Example 1. At various times following the injections, the number of surface tumor colonies on the lungs was assessed. Tumors were visually counted by injecting India ink into the trachea of the animals.
Finally, the effects of the administration of carboplatin and Cereport™ on the survival of animals who had been subjected to the implantation of MAT B-III metastatic lung surface tumors was assessed. In this study, 1×10^6 MAT B-III cells as a 200 μl suspension were implanted by intrajugular injection in 54 male Fischer rats. Sixteen days later, indwelling cannulae were inserted in the previously implanted jugular vein. On days 16 and 23, the animals received a continuous infusion of 5 mg/kg of carboplatin over a 15 minute period. Immediately following the 15 minute carboplatin infusion, the animals received a 10 minute continuous infusion of either saline or Cereport (1.5 μg/kg). The survival rates for the animals were then monitored.

Data set [7] relates to implanted tumor. Conditions: FIG. 14; Cereport infusion for 10 minutes at 1 μg/kg. The text has this: Interstitial fluid pressure is a severe impediment for administered substances into tumor interstitial spaces from the bloodstream.
Data set [8] addresses angiotensin converting enzyme (ACE) (Homo sapiens, UniProt P12821). Particulars: general statement, no method given; cited from earlier work.
The subject of another data set is implanted tumor and lung. Description: Retention of 14C-carboplatin in solid tumors and in lung. In kind it is in vivo, rat. Conditions: FIG. 8. How it is done:
The carboplatin was administered two minutes into a five minute Cereport™ infusion.

Where [9] appears, read: eighth day, carboplatin plus Cereport 1.5 μg/kg.

Like-named read-outs stand apart in the source and are kept apart here.

angiotensin converting enzyme (ACE), sequence (P12821 30-1306, species assumed): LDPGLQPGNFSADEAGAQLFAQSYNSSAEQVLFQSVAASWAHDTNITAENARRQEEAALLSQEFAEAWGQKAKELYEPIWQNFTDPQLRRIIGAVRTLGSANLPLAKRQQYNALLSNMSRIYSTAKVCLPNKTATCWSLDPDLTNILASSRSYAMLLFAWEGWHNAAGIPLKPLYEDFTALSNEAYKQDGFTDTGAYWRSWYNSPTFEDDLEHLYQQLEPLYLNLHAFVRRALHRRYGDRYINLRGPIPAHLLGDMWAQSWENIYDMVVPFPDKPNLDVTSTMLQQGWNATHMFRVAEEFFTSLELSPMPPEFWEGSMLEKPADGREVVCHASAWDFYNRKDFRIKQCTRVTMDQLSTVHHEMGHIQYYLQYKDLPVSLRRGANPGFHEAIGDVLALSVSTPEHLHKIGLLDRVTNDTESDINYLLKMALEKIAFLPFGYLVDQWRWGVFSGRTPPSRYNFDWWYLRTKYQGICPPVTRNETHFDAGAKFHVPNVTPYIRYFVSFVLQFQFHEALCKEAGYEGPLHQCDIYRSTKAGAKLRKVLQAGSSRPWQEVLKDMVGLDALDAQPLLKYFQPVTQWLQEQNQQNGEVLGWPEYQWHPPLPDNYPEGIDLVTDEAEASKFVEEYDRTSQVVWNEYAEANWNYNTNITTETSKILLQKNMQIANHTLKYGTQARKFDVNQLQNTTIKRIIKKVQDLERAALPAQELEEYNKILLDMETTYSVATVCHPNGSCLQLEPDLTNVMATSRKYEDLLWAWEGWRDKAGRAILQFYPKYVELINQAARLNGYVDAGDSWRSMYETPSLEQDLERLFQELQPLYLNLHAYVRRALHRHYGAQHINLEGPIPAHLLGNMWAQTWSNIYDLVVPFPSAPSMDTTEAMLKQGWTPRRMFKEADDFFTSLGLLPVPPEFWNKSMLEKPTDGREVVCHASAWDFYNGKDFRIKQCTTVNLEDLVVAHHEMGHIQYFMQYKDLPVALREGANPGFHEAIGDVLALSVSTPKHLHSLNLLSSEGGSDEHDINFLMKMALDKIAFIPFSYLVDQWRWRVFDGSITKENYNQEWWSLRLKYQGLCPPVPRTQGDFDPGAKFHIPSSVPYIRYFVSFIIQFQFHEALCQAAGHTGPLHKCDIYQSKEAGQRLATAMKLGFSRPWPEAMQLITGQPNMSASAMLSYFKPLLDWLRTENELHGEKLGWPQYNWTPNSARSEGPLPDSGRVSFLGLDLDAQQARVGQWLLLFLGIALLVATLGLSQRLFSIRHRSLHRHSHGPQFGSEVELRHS

“arginine-proline-hydroxyproline-glycine-thienylalanine-serine-proline-4-Me-tyrosineψ(CH2NH)arginine [Cereport™]”: the “carboplatin uptake into inner tumor and outer tumor” value in [1] (FIG. 1, carboplatin bolus two minutes into a ten minute Cereport infusion, three Cereport infusion amounts, vs no Cereport) is on record as “significantly taken up”; in data set [1] (FIG. 2, carboplatin bolus two minutes into a five minute Cereport infusion, Cereport 0.5 μg/kg) it was “not significantly taken up”; in data set [1] (FIG. 2, carboplatin bolus two minutes into a five minute Cereport infusion, Cereport 0.75 μg/kg), “significantly taken up”; in data set [1] (FIG. 2, carboplatin bolus two minutes into a five minute Cereport infusion, Cereport 1.0 μg/kg) it was “significantly taken up”; in data set [1] (FIG. 2, carboplatin bolus two minutes into a five minute Cereport infusion, Cereport 1.75 μg/kg), “significantly taken up”; in data set [1] (FIG. 2, carboplatin bolus two minutes into a five minute Cereport infusion, Cereport 2.5 μg/kg), “significantly taken up”. The “carboplatin uptake into inner tumor and outer tumor” value is “not significantly taken up” in data set [1] (FIG. 2, carboplatin bolus two minutes into a five minute Cereport infusion, Cereport 5.0 μg/kg); “possible exception” in data set [1] (FIG. 3, carboplatin infused 15 minutes prior to Cereport, Cereport 0.36 μg/kg); “significantly taken up” in [1] (FIG. 3, carboplatin infused 15 minutes prior to Cereport, all Cereport doses other than 0.36 μg/kg). In data set [1] (FIG. 4, dextran infused 15 minutes prior to Cereport, three Cereport infusion amounts, vs no Cereport), the “dextran (MW 70 kDa) uptake into inner tumor and outer tumor” value is “significantly taken up”. Further, the “carboplatin uptake into implanted tumor located in the flank” value in data set [2] is on record as “significantly taken up”. Besides, the “carboplatin uptake into implanted tumor located in the mammary pad” value in [2] was “significantly taken up”. For the same molecule, in data set [3] (15 min carboplatin then 10 min Cereport 1.0 μg/kg), the “carboplatin uptake into tumor implanted in the liver” value is on record as “significantly taken up”. Besides, the “carboplatin uptake into liver tissue adjacent to the tumor” value in [3] (inner and outer ring liver strips, Cereport 1.0 μg/kg) is on record as “does not have a significant effect”. Besides, the “carboplatin uptake into control strip of liver” value in [3] (strip from untreated lobe, Cereport 1.0 μg/kg) was “does not have a significant effect”. The “carboplatin uptake in tumor tissue compared with heart, lung and liver” value in data set [4] is on record as “far surpasses”. In data set [4], the “carboplatin uptake into heart, lung and liver” value was “some uptake”. Besides, the “carboplatin uptake into inner and outer region of Walker 256 tumor” value in the data set on Walker 256 tumor was “significantly taken up”. Moreover, the “regression of the implanted tumor in comparison to carboplatin alone” value with implanted tumor [5] (15 min carboplatin then 10 min Cereport 1.5 μg/kg) is listed as “markedly cause regression”. The “tumor size relative to size if Cereport had not been administered with the carboplatin” value in the data set with implanted tumor [5] (setting [9]) is listed as “approximately one half”. For the same molecule, the “tumor size relative to size if no carboplatin had been administered” value with implanted tumor [5] (setting [9]) was “approximately one third”. The “additional extension of survival profile beyond carboplatin alone” value in data set [6] (carboplatin 5 mg/kg followed by Cereport 1.5 μg/kg on days 16 and 23) is recorded as “approximately 10 days”. Moreover, the “decrease of interstitial fluid pressure in implanted tumors” value in the data set with implanted tumor [7] was “up to 40%”. The “degradation by angiotensin converting enzyme (ACE)” value in data set [8] was “not significantly degraded”.

Take `N.N.O=C([O-])C1(C(=O)[O-])CCC1.[Pt+2]` [carboplatin]: the “retention of carboplatin in tumor tissue” value in the data set on implanted tumor and lung (after Cereport administration, carboplatin two minutes into five minute Cereport infusion) is “at least 90 minutes”. For the same molecule, the “retention of carboplatin in lung” value with implanted tumor and lung (after the initial uptake following Cereport administration) was “not retained”. For the same molecule, the “prolongation of survival versus no carboplatin” value in [6] (carboplatin 5 mg/kg by itself (followed by saline) on days 16 and 23) was “approximately 10 days”.
